Data from US10413575B2, “Pharmaceutical composition for preventing or treating inflammatory diseases, containing Lactococcus chungangensis as active ingredient” (CHUNG-ANG UNIVERSITY INDUSTRY-ACADEMIC COOPERATION …, priority 2015, dated 2019).

Columns and labels:
Type in all cases: in vivo
[1] = tested on: DNCB-induced atopic BALB/c mice and NC/Nga mice; test: Histopathological test (H&E) of dorsal skin tissue and ears; conditions: skin application, vs DNCB-induced atopic mice
Text: Mice were divided into a total of five groups, a non-treatment (normal) group, a DNCB group, a Tacrolimus skin application group, a Lactococcus chungangensis skin application group, and a Lactococcus chungangensis oral administration group. Then, 0.1 g of hair removal cream was applied on the back and neck of BALB/c and NC/Nga mice, respectively, and hairs were removed using soft tissue paper to avoid wounds. After the mice were left for 5 days to heal minor wounds, 1% DNCB 200 (acetone:olive oil=3:1) was applied to the back and ears three times a week for two weeks to induce atopy. After atopy induction, Lactococcus chungangensis was applied to diseased parts at 10^9 cell/mouse twice a week for four weeks, while Lactococcus chungangensis was administered to oral cavity at 10^9 cell/mouse twice a week for four weeks. For efficacy comparison, Tacrolimus in use as an atopy medicine was used. Tacrolimus was applied to atopy diseased parts at 100 mg/kg twice a week for four weeks.
After the treatment of test materials, the dorsal skin tissue (1.5×1.5 cm) and ears of BALB/c mice and NC/Nga mice of the test and control groups were taken off, and fixed in 10% paraformaldehyde for 24 hours. The tissues were sufficiently hardened in paraffin, and sliced into five pieces to prepare slide glasses. […]

[2] = tested on: DNCB-induced atopic NC/Nga mice; test: Visual evaluation of DNCB-induced atopic NC/Nga mice; set-up: key to dryness/scarring / edema / erosion/excoriation / erythema/hemorrhage: 0=absence; 1=mild; 2=moderate; 3=severe; key to Total severity score / Mean severity score: sum of 4 signs each 0=absence to 3=severe; conditions: skin application
Text: Mice were divided into a total of five groups, a non-treatment (normal) group, a DNCB group, a Tacrolimus skin application group, a Lactococcus chungangensis skin application group, and a Lactococcus chungangensis oral administration group. Then, 0.1 g of hair removal cream was applied on the back and neck of BALB/c and NC/Nga mice, respectively, and hairs were removed using soft tissue paper to avoid wounds. After the mice were left for 5 days to heal minor wounds, 1% DNCB 200 (acetone:olive oil=3:1) was applied to the back and ears three times a week for two weeks to induce atopy. After atopy induction, Lactococcus chungangensis was applied to diseased parts at 10^9 cell/mouse twice a week for four weeks, while Lactococcus chungangensis was administered to oral cavity at 10^9 cell/mouse twice a week for four weeks. For efficacy comparison, Tacrolimus in use as an atopy medicine was used. Tacrolimus was applied to atopy diseased parts at 100 mg/kg twice a week for four weeks. Visual evaluation was conducted to determine a treatment effect in each of a Tacrolimus skin application group, a Lactococcus chungangensis skin application group, and a Lactococcus chungangensis oral administration group. Visual evaluation was conducted by evaluating the skin condition in four stages (0=absence, 1=mild, 2=moderate, 3=severe) according to the severity of erythema/hemorrhage, dryness/scarring, edema, and erosion/excoriation as evaluation indexes. A severity score of about 12 point or more was determined that the atopy symptoms reach the highest peak. The results are shown in Tables 1 to 5 for BALB/c mice, and Tables 6 to 10 for NC/Nga mice.

IgE = test: Immunoglobulin IgE measurement in serum (ELISA), BALB/c mice; conditions: skin application, compared with the DNCB-induced group
Description: After the ending of the treatment with test materials, BALB/c and NC/Nga mice of the five groups were sacrificed, and blood was collected from the heart. Serum was isolated from the blood to measure IgE. […] Absorbance was measured at 450 nm using a microplate reader to determine IgE protein level.

[3] = tested on: IL-4, IL-5, IL-12, IFN-γ, TNF-α, and TARC; test: Chemokine and cytokine protein levels in serum (ELISA); conditions: BALB/c and NC/Nga, skin application, vs DNCB-induced atopy mice
Text: Mice were divided into a total of five groups, a non-treatment (normal) group, a DNCB group, a Tacrolimus skin application group, a Lactococcus chungangensis skin application group, and a Lactococcus chungangensis oral administration group. Then, 0.1 g of hair removal cream was applied on the back and neck of BALB/c and NC/Nga mice, respectively, and hairs were removed using soft tissue paper to avoid wounds. After the mice were left for 5 days to heal minor wounds, 1% DNCB 200 (acetone:olive oil=3:1) was applied to the back and ears three times a week for two weeks to induce atopy. After atopy induction, Lactococcus chungangensis was applied to diseased parts at 10^9 cell/mouse twice a week for four weeks, while Lactococcus chungangensis was administered to oral cavity at 10^9 cell/mouse twice a week for four weeks. […] Tacrolimus was applied to atopy diseased parts at 100 mg/kg twice a week for four weeks.
In addition, the protein level changes of IL-4, IL-5, IL-12, IFN-γ, TNF-α, and TARC in the serum isolated from the blood taken from the heart of each of BALB/c mice and NC/Nga mice were measured using IL-4 Quantikine Immunoassay Kit, IL-5 Quantikine Immunoassay Kit, IL-12 Quantikine Immunoassay Kit, TNF-α Quantikine Immunoassay Kit, CCL17/TARC Quantikine Immunoassay Kit (R&D Systems, Minneapolis, Minn., USA), respectively, and the absorbance was determined at 450 nm by using a microplate reader.

C=CC[C@@H]1/C=C(\C)C[C@H](C)C[C@H](OC)[C@H]2O[C@@](O)(C(=O)C(=O)N3CCCC[C@H]3C(=O)O[C@H](/C(C)=C/[C@@H]3CC[C@@H](O)[C@H](OC)C3)[C@H](C)[C@@H](O)CC1=O)[C@H](C)C[C@@H]2OC [Tacrolimus]
6: Total severity score ([2]; 1 Week, evaluation 2)
2: dryness/scarring ([2]; 1 Week, evaluation 1) | dryness/scarring ([2]; 1 Week, evaluation 2) | erosion/excoriation ([2]; 1 Week, evaluation 2) | erosion/excoriation ([2]; 2 Weeks, evaluation 3) | edema ([2]; 2 Weeks, evaluation 4) | erosion/excoriation ([2]; 2 Weeks, evaluation 4) | edema ([2]; 3 Weeks, evaluation 6) | erosion/excoriation ([2]; 4 Weeks, evaluation 8) | edema ([2]; 5 Weeks, evaluation 9) | erosion/excoriation ([2]; 5 Weeks, evaluation 10) | edema ([2]; 6 Weeks, evaluation 11) | erosion/excoriation ([2]; 6 Weeks, evaluation 11) | dryness/scarring ([2]; 6 Weeks, evaluation 12) | edema ([2]; 6 Weeks, evaluation 12) | erosion/excoriation ([2]; 6 Weeks, evaluation 12) | erythema/hemorrhage ([2]; 6 Weeks, evaluation 12)
11: Total severity score ([2]; 2 Weeks, evaluation 3) | Total severity score ([2]; 3 Weeks, evaluation 6) | Total severity score ([2]; 4 Weeks, evaluation 8) | Mean severity score ([2]; 5 Weeks) | Total severity score ([2]; 5 Weeks, evaluation 9) | Total severity score ([2]; 5 Weeks, evaluation 10)
9: Mean severity score ([2]; 6 Weeks)
5.5: Mean severity score ([2]; 1 Week)
3: dryness/scarring ([2]; 2 Weeks, evaluation 3) | edema ([2]; 2 Weeks, evaluation 3) | erythema/hemorrhage ([2]; 2 Weeks, evaluation 3) | dryness/scarring ([2]; 2 Weeks, evaluation 4) | erythema/hemorrhage ([2]; 2 Weeks, evaluation 4) | dryness/scarring ([2]; 3 Weeks, evaluation 5) | edema ([2]; 3 Weeks, evaluation 5) | erosion/excoriation ([2]; 3 Weeks, evaluation 5) | erythema/hemorrhage ([2]; 3 Weeks, evaluation 5) | dryness/scarring ([2]; 3 Weeks, evaluation 6) | erosion/excoriation ([2]; 3 Weeks, evaluation 6) | erythema/hemorrhage ([2]; 3 Weeks, evaluation 6) | dryness/scarring ([2]; 4 Weeks, evaluation 7) | edema ([2]; 4 Weeks, evaluation 7) | erosion/excoriation ([2]; 4 Weeks, evaluation 7) | erythema/hemorrhage ([2]; 4 Weeks, evaluation 7) | dryness/scarring ([2]; 4 Weeks, evaluation 8) | edema ([2]; 4 Weeks, evaluation 8) | erythema/hemorrhage ([2]; 4 Weeks, evaluation 8) | dryness/scarring ([2]; 5 Weeks, evaluation 9) | erosion/excoriation ([2]; 5 Weeks, evaluation 9) | erythema/hemorrhage ([2]; 5 Weeks, evaluation 9) | dryness/scarring ([2]; 5 Weeks, evaluation 10) | edema ([2]; 5 Weeks, evaluation 10) | erythema/hemorrhage ([2]; 5 Weeks, evaluation 10) | dryness/scarring ([2]; 6 Weeks, evaluation 11) | erythema/hemorrhage ([2]; 6 Weeks, evaluation 11)
10.5: Mean severity score ([2]; 2 Weeks)
11.5: Mean severity score ([2]; 3 Weeks) | Mean severity score ([2]; 4 Weeks)
48%: inhibition of IgE production (IgE)
8: Total severity score ([2]; 6 Weeks, evaluation 12)
12: Total severity score ([2]; 3 Weeks, evaluation 5) | Total severity score ([2]; 4 Weeks, evaluation 7)
significantly reduced: dead skin cell exfoliation, epidermal hypertrophy, and hyperkeratosis [1] | protein level of IFN-γ [3] | protein level of IL-4 [3] | protein level of IL-5 [3] | protein level of IL-12 [3] | protein level of TARC [3] | protein level of TNF-α [3]
5: Total severity score ([2]; 1 Week, evaluation 1)
1: edema ([2]; 1 Week, evaluation 1) | erosion/excoriation ([2]; 1 Week, evaluation 1) | erythema/hemorrhage ([2]; 1 Week, evaluation 1) | edema ([2]; 1 Week, evaluation 2) | erythema/hemorrhage ([2]; 1 Week, evaluation 2)
10: Total severity score ([2]; 2 Weeks, evaluation 4) | Total severity score ([2]; 6 Weeks, evaluation 11)
